Patent publication US20060142247A1, “Tricyclic heterocycles” (priority 2004, published 2006)

Molecular target: T1, Aurora A (Homo sapiens, UniProt O14965)
T1 construct: C-terminally Histidine4 (His4)-tagged Aurora A full-length protein; His4 (C)
T1 sequence (O14965 1-403): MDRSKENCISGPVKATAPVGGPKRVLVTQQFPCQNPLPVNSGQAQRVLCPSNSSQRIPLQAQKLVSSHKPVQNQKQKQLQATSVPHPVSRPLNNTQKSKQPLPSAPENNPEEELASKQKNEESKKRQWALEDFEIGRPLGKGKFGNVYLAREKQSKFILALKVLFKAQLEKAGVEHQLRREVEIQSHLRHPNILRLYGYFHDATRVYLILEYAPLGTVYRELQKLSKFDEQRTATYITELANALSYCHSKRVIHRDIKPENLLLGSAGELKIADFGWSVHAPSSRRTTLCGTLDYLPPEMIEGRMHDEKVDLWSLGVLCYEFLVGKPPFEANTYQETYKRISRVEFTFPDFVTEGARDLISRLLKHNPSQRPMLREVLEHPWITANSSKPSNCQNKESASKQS
Experiment: IC50 determination for inhibitors of Aurora A (96 MTP-ELISA)
Type: biochemical
Conditions: His4-tagged full-length Aurora A 250 ng/ml, PKB-GSK2 200 nM, ATP 4 μM, 90 min room temperature, read-out: IC50 Aurora A kinase inhibition
Description: Aurora A is a serine threonine kinase involved in spindle assembly and chromosome segregation. The assay is a typically ELISA-type assay where biotinylated substrate (PKB-GSK2) is phosphorylated. Phosphorylation is detected by peroxidase (POD) labelled polyclonal antibody (PAK<M-Ig>S-IgG-POD) and phosphopeptide monoclonal antibody (Mab) (MAK<P-GSK>M-27E5-IgG). The assay is validated for IC50-determination.
Assay plates: 96-well polystyrene plates, streptavidin-coated,
Samples: 10 mM in dimethylsulfoxide (DMSO)
Aurora A-His-4: C-terminally Histidine4 (His4)-tagged Aurora A full-length protein, stock solution 0.7 mg/ml, final conc.: 250 ng/ml
PKB-GSK2: biotinylated peptide derived from human GSK3-alpha sequence (Biotin-SGRARTSSFAEPGG-CONH2), stock solution 600 μM, final conc.: 200 nM
PAK<M-Ig>S-IgG-POD: Anti-mouse IgG, horse radish peroxidase(HRP)-linked Antibody, diluted in 3% BSA/PBS-T (1:10000), (Cell Signaling, Cat. No.: 7076)
MAK<P-GSK>M-27E5-IgG: Phospho-GSK-3-alpha (Ser 21) (27E5) Monoclonal Antibody, stock solution 1.85 mg/ml, diluted in 3% BSA/PBS-T (1:6000), final conc.: 0.31 μg/ml, (Cell Signaling, Cat. No.: 9337B)
ATP: Adenosine-5′-triphosphate 1 mM, diluted in kinase buffer, (Roche Diagnostics GmbH, Cat. No.: 127531-001,), final conc.: 4 μM
TRIS: 2-Amino-2-hydroxymethyl-1,3-propoanediol (“tris-(hydroxymethyl)-aminomethane”) (MERCK, Cat. No.: 108382.2500)
BSA: Bovine Serum Albumin Fraction V, fatty acid free (Roche Diagnostics GmbH, Cat. No. 9100221)
EDTA Titriplex III (di-Sodium-EDTA di-Hydrate), 120 mM, (MERCK, Cat. No.: 1.08418.1000)
ABTS buffer: ABTS (2,2′-azino-bis(3-ethylbenzthiazoline-6-sulfonic acid)) 16.7 mg/ml (Roche Diagnostics GmbH, Cat. No.: 1204530) • ABTS tablets: dissolve one ABTS tablet in 50 ml of working solution (ABTS buffer) (Roche Diagnostics GmbH, Cat. No.: 1112422 ) • Tween 20: Polysorbat 20 (Roche Diagnostics GmbH, Cat. No.: 10006394-001) • DTT: 1,4-Dithiothreitol (Roche Diagnostics GmbH, Cat. No.: 197777) • MgCl2×6H2O MERCK, Cat. No.: 105833.1000 • Kinase buffer: 50 mM TRIS, 10 mM MgCl2, 1 mM DTT, 0.1% Tween 20, pH 7.8 PBS-T (=Wash buffer) (PBS-T)10 g/l PBS(Phosphate buffered saline) with 0.033% Tween 20 • 3% BSA/PBS-T: 3% BSA dissolved in PBS-T Method
This assay is performed in 96-well format for IC50 determination with 5 samples (each with 8 concentrations by twofold testing), 100 μl incubation volume and the following plate layout:
S samples, with ATP, 1% DMSO, final conc.: a=100 μM, b=20 μM, c=4 μM, d=0.8 μM, e=0.16 μM, f=0.032 μM, g=0.0064 μM, h=0.00128 μM Step/Action • (1) Sample preparation: add 24 μl per well samples (descending sequence) diluted in kinase buffer to assay plate (final conc. for DMSO 1%). • 2. Add directly 16 μl Aurora-A-his-4 diluted in kinase buffer to assay plate. • 3. Add directly 40 μl per well PKB-GSK2/ATP mixture to assay plate, (final conc.: Aurora A=250 ng/ml, GSK2=200 nM, ATP=4 μM). Negative control: without ATP. • 4. Incubate assay plate for exactly 90 min at room temperature. • 5. Stop reaction by adding 20 μl EDTA in all wells. • 6. Wash assay plate 3× with 200 μl washing buffer per well. • 7. Add 100 μl MAK<P-GSK>M27E5-IgG (1:10000) and PAK<M-Ig>S-IgG-POD (1:6000) dissolved in 3% BSA/PBS-T to assay plate per well. • 8. Incubate assay plate for 60 min at room temperature. • 9. Wash assay plate 3× with 200 μl washing buffer per well • 10. Add 100 μl ABTS solution to assay plate per well, incubate for approx. 4 min at RT on MTP shaker. • 11. Measure absorption at 405/492 nm. • 12. Calculate % inhibition as: (1−(Esample−ENC)/(EPC−ENC))×100 1)
13. Calculate IC50 using a non-linear curve fit (XLfit software (ID Business Solution Ltd., Guilford, Surrey, UK))

Row | Structure (SMILES) | IC50
1 | CC1(C)C(=O)N(CC(=O)NCC(O)CO)c2cc3[nH]c(-c4n[nH]c5ccccc45)nc3cc21 (stereo not shown) [Example 48, N-(2,3-Dihydroxy-propyl)-2-[2-(1H-indazol-3-yl)-7,7-dimethyl-6-oxo-6,7-dihydro-3H-imidazo[4,5-f]indol-5-yl]-acetamide] | 1 to 100 nM
2 | CC1(C)C(=O)N(Cc2cccnc2)c2cc3[nH]c(-c4n[nH]c5ccccc45)nc3cc21 [Example 16, 2-(1H-Indazol-3-yl)-7,7-dimethyl-5-pyridin-3-ylmethyl-5,7-dihydro-3H-imidazo[4,5-f]indol-6-one] | 1 to 100 nM
3 | CC1(C)C(=O)N(Cc2nnn[nH]2)c2cc3[nH]c(-c4n[nH]c5ccccc45)nc3cc21 [Example 33, 2-(1H-Indazol-3-yl)-7,7-dimethyl-5-(1H-tetrazol-5-ylmethyl)-5,7-dihydro-3H-imidazo[4,5-f]indol-6-one] | 1 to 100 nM
4 | CC1(C)C(=O)N(CC(=O)N2CCCCC2)c2cc3[nH]c(-c4n[nH]c5ccccc45)nc3cc21 [Example 44, 2-(1H-Indazol-3-yl)-7,7-dimethyl-5-(2-oxo-2-piperidin-1-yl-ethyl)-5,7-dihydro-3H-imidazo[4,5-f]indol-6-one] | 1 to 100 nM
